Reference: publication PMC5556071, “ATR inhibition facilitates targeting of leukemia dependence on convergent nucleotide biosynthetic pathways” (Nature Communications, 2017)
pIC50: −log10 of the molar value. Like-named read-outs stand apart in the source and are kept apart here.

Experiments:
Type in all cases: cell-based, human
Jurkat cells = assay: Cell cycle histograms (propidium iodide flow cytometry); settings: dCKi 1 µM, 24 h
Experimental: Cell cycle histograms. Cells were plated at a density of 0.5 x 10^6 cells/mL in respective media or drug treated
media. Following 24 h incubation, cells were harvested and washed twice with PBS twice before staining with
0.5 ml of propidium iodide (Calbiochem, #P3566, 1 µg/mL) solution containing Ribonuclease A and 0.3%
Triton-X 100. The samples were protected from light before acquisition by flow cytometry. […]

CEM cells [1] = assay: Cell cycle analysis of asynchronous cells by flow cytometry (S-phase population, S-phase arrest); settings: CEM, 24 h
Experimental: Cell cycle histograms. Cells were plated at a density of 0.5 x 10^6 cells/mL in respective media or drug treated media. Following 24 h incubation, cells were harvested and washed twice with PBS twice before staining with 0.5 ml of propidium iodide (Calbiochem, #P3566, 1 µg/mL) solution containing Ribonuclease A and 0.3% Triton-X 100. The samples were protected from light before acquisition by flow cytometry.
Cell cycle kinetics and cell cycle progression by intracellular detection of DNA-incorporated 5-ethynyl-2-deoxyuridine (EdU). CEM T-ALL cells were plated at a density of 0.5 x 10^6 cells/mL. Cells were pulsed with 10 µM EdU (Invitrogen) for 1 h, washed twice with PBS, and released in fresh media containing 5 µM deoxyribonucleosides, with and without drugs. Cells were collected at different time points following release in fresh media, and then fixed with 4% paraformaldehyde and permeabilized using saponin perm/wash reagent (Invitrogen). Cells were then stained with azide-Alexa Fluor 647 by Click reaction according to manufacturer’s protocol (Invitrogen; Click-iT EdU Flow cytometry kit, #C10634). […]

CEM cells [2] = assay: Proliferation assay (CellTiter-Glo, 72 h)
Experimental: Cells were plated in 384-well plates (1000 cells/well for suspension cell lines and 500 cells/well for adherent cell lines in 30 µl volume). Drugs were serially diluted to the desired concentrations and an equivalent volume of DMSO was added to vehicle control. Ten microliter of the 4× diluted drugs were added to each well. Following 72 h incubation, ATP content was measured using CellTiter-Glo reagent according to manufacturer’s instructions (Promega, CellTiter-Glo Luminescent Cell Viability Assay), and analyzed by SpectraMax luminometer (Molecular Devices). IC50 values, concentrations required to inhibit proliferation by 50% compared to DMSO treated cells, were calculated using Prism 6.0 h (Graphpad Software).

[3] = Suppl. Fig. 5e, BCX-1777 100 nM

Row | SMILES | fold higher concentration than 3-AP required to induce S-phase arrest (CEM cells [1]) | pIC50 (CEM cells [2]) | other results
1 | O=c1[nH]cnc2c([C@@H]3N[C@H](CO)[C@@H](O)[C@H]3O)c[nH]c12 [BCX-1777, forodesine] |  |  | cells in G2/M (Jurkat cells; [3]): 1.4%; cells in S phase (Jurkat cells; [3]): 40%
2 | Cc1occc(=O)c1[O-].Cc1occc(=O)c1[O-].Cc1occc(=O)c1[O-].[Ga+3] [GaM, gallium maltolate] | 60–100 fold | 4.30 | 
3 | NC(=O)NO [HU, hydroxyurea] | 60–100 fold | 4.13 | 
4 | OC[C@H]1O[C@@H](n2cnc3c2NC=NC[C@H]3O)C[C@@H]1O [dCF, Pentostatin] |  |  | cells in G2/M (Jurkat cells; Suppl. Fig. 4e, dCF 10 µM): 6%; cells in S phase (Jurkat cells; Suppl. Fig. 4e, dCF 10 µM): 11%
5 | Cc1cn([C@H]2C[C@H](O)[C@@H](CO)O2)c(=O)[nH]c1=O [dT, thymidine] | 60–100 fold |  | pIC50 (CEM cells [2]; Homo sapiens, CCRF-CEM): 3.80
